20 molecules from patent US10144715B2, “Piperazine derivatives as liver X receptor modulators” (priority 2014, dated 2018) can be followed below.

Structures are written as SMILES. Like-named read-outs stand apart in the source and are kept apart here.

Broadly, the Ki is a dissociation constant, usually derived from enzyme kinetics or from competition with a known ligand. Usually EC50 stands for the midpoint of the concentration-response curve.

In assay [1] the target is LXR α LBD protein (Homo sapiens (Human), UniProt Q13133). Nature of the assay: LXR α radioligand binding assay (SPA, competition with [3H]TO901317). To be noted: read-out: LXRα Binding Ki.
In assay [2] the target is LXR β LBD protein (Homo sapiens (Human), UniProt P55055). The assay is described as follows: biochemical. Type of assay: binding.
The target of assay [3] is Gal4 DNA binding domain fused to the LBD of LXRα in HEK293 cells (Homo sapiens (Human), UniProt Q13133). The assay is described as follows: LXR luciferase transcriptional reporter gene assay, agonist mode, LXRα. Format: cell-based. The following applies: for EC50: read-out: Cell LXRα EC50. In general terms: A reporter such as luciferase makes a cellular process visible.
The target in assay [4] is Gal4 DNA binding domain fused to the LBD of LXRβ in HEK293 cells (Homo sapiens (Human), UniProt P55055). The assay is described as follows: cell-based.
The mark [5] stands for this setting: Biological Test Example 1, read-out: LXRβ Binding Ki.
Setting [6] is: Biological Test Example 2, agonist mode.
The mark [7] stands for this setting: agonist mode, read-out: Cell LXRβ EC50.
Where [8] appears, read: Biological Test Example 2, agonist mode, read-out: Cell LXRβ EC50.

Sequence of Gal4 DNA binding domain fused to the LBD of LXRα in HEK293 cells (Q13133 209-447): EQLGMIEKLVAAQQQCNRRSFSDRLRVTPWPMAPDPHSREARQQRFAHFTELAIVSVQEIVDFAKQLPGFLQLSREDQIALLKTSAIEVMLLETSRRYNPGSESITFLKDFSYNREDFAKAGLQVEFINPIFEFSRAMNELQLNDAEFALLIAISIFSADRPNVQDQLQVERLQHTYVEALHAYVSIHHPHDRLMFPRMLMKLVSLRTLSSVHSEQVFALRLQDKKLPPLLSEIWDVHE
Sequence of LXR α LBD protein (Q13133 209-447): as above
Sequence of Gal4 DNA binding domain fused to the LBD of LXRβ in HEK293 cells (P55055 222-460 limits assumed): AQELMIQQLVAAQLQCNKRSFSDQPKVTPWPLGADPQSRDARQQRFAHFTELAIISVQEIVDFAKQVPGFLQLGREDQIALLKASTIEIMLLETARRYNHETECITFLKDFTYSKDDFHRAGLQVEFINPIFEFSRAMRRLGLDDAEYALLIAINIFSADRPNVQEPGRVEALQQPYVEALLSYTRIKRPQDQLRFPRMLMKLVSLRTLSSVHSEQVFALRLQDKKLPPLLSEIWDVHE
Sequence of LXR β LBD protein (P55055 222-460 limits assumed): as above

Turning to `Cc1nc(N2CCN(c3ccc(F)c(S(C)(=O)=O)c3)C[C@H]2C(C)C)ncc1CO` [11-14, (R)-(2-(4-(4-fluoro-3-(methylsulfonyl)phenyl)-2-isopropylpiperazin-1-yl)-4-methylpyrimidin-5-yl)methanol], the figures for the Ki in assay [1] and in assay [2] were above 3.33 µM and 0.515 µM, respectively. Also, the EC50 in assay [3] and in assay [4] was above 20 µM each time.
As to `CC(C)[C@@H]1CN(c2ccc(F)c(S(C)(=O)=O)c2)CCN1c1nc(C(F)(F)F)c(C(C)(C)O)o1` [10-8, (R)-2-(2-(4-(4-fluoro-3-(methylsulfonyl)phenyl)-2-isopropylpiperazin-1-yl)-4-(trifluoromethyl)oxazol-5-yl)propan-2-ol], the inhibition constant Ki turned out to be 2.19 µM in assay [1] and 0.132 µM in assay [2] (read-out: LXRβ Binding Ki). The “Cell LXRα efficacy” value in assay [3] was 4655 (96) %. For the same molecule, the values for the EC50 in assay [3] and in assay [4] were 4.66 µM and 0.901 µM, respectively. For the same molecule, the “Cell LXRβ efficacy” value in assay [4] (agonist mode) is on record as 901 (76) %.
Regarding `CC(=O)NCc1cnc(N2CCN(c3ccc(F)c(S(C)(=O)=O)c3)C[C@H]2C(C)C)nc1C(F)(F)F` [54-2, (R)-N-((2-(4-(4-fluoro-3-(methylsulfonyl)phenyl)-2-isopropylpiperazin-1-yl)-4-(trifluoromethyl)pyrimidin-5-yl)methyl)acetamide], the results for the Ki in assay [1] and in assay [2] (setting [5]) were 0.863 µM and 0.081 µM, respectively. Moreover, the “Cell LXRα efficacy” value in assay [3] was 3064 (29) %. Moreover, the EC50 in assay [3] was 3.06 µM; in assay [4], 0.812 µM. Moreover, the “Cell LXRβ efficacy” value in assay [4] (setting [6]) is reported as 812 (27) %.
As for `NS(=O)(=O)c1cccc(N2CCN(C[C@H]3CC[C@H](C(F)F)CC3)[C@H](c3ccccc3)C2)c1` (single isomer, unassigned) [48-20], the Ki in assay [1] turned out to be 4.67 µM; in assay [2] (read-out: LXRβ Binding Ki), 1.55 µM. Further, the EC50 in assay [3] is above 20 µM; in assay [4] (setting [7]), 2.27 µM. The “Cell LXRβ efficacy” value in assay [4] (agonist mode) is 6%.
In the case of `COC(c1cnc(N2CCN(c3ccc(F)c(S(C)(=O)=O)c3)C[C@H]2C(C)C)nc1)C(F)(F)F` (stereo partly drawn) [Cpd No 42-1, 2-((R)-4-(4-fluoro-3-(methylsulfonyl)phenyl)-2-isopropylpiperazin-1-yl)-5-(2,2,2-trifluoro-1-methoxyethyl)pyrimidine], the Ki in assay [1] was 0.366 µM; in assay [2] (read-out: LXRβ Binding Ki), 0.033 µM. Further, the “Cell LXRα efficacy” value in assay [3] was 763 (48) %. For the same molecule, the EC50 is 0.763 µM in assay [3] and 0.124 µM in assay [4]. The “Cell LXRβ efficacy” value in assay [4] is 124 (20) %.
Regarding `C[C@@H](c1ccc(C(F)(F)F)cc1)N1CCN(c2cccc(S(C)(=O)=O)c2)C[C@H]1c1ccccc1` [46-17, (R)-4-(3-(methylsulfonyl)phenyl)-2-phenyl-1-((S)-1-(4-(trifluoromethyl)phenyl)ethyl)piperazine], the inhibition constant (Ki) in assay [1] is above 3.33 µM; in assay [2], above 2.5 µM. Moreover, the EC50 in assay [3] and in assay [4] was above 20 µM each time.
Consider `CC(C)[C@@H]1CN(c2ccc(CO)c(S(C)(=O)=O)c2)CCN1c1nc(C(F)(F)F)c(C(C)(C)O)o1` [26-2, (R)-2-(2-(4-(4-(hydroxymethyl)-3-(methylsulfonyl)phenyl)-2-isopropylpiperazin-1-yl)-4-(trifluoromethyl)oxazol-5-yl)propan-2-ol], for which the values for the inhibition constant Ki in assay [1] and in assay [2] (read-out: LXRβ Binding Ki) were 1.18 µM and 0.072 µM, respectively. Also, the “Cell LXRα efficacy” value in assay [3] is reported as 2233 (99) %. Moreover, the EC50 in assay [3] stood at 2.23 µM; in assay [4] it was 0.329 µM. Also, the “Cell LXRβ efficacy” value in assay [4] (agonist mode) was 329 (74) %.
Take `C[C@H](c1ccc(C(F)(F)F)cc1)N1CCN(c2cccc(S(C)(=O)=O)c2)C[C@H]1c1ccccc1` [46-19, (R)-4-(3-(methylsulfonyl)phenyl)-2-phenyl-1-((R)-1-(4-(trifluoromethyl)phenyl)ethyl)piperazine]: the Ki is above 3.33 µM in assay [1] and 1.9 µM in assay [2]. The EC50 was above 20 µM in assay [3] and 4.35 µM in assay [4]. The “Cell LXRβ efficacy” value in assay [4] is recorded as 4348 (6) %.
For the molecule `CC(C)[C@@H]1CN(c2ccc(F)c(S(C)(=O)=O)c2)CCN1c1ncc(C(=O)N2CC(N)C2)c(C(F)(F)F)n1` [17-4, (R)-(3-aminoazetidin-1-yl)(2-(4-(4-fluoro-3-(methylsulfonyl)phenyl)-2-isopropylpiperazin-1-yl)-4-(trifluoromethyl)pyrimidin-5-yl)methanone], the inhibition constant Ki in assay [2] (read-out: LXRβ Binding Ki) was determined as 0.512 µM. Further, the EC50 in assay [3] (agonist mode) is above 20 µM; in assay [4] it was 0.833 µM. Also, the “Cell LXRβ efficacy” value in assay [4] (agonist mode) is on record as 833 (6) %.
For `CS(=O)(=O)c1cccc(N2CCN(CC3CCN(CC(F)(F)F)CC3)[C@H](c3ccccc3Cl)C2)c1` [48-56, (R)-2-(2-chlorophenyl)-4-(3-(methylsulfonyl)phenyl)-1-((1-(2,2,2-trifluoroethyl)piperidin-4-yl)methyl)piperazine], the Ki in assay [2] (read-out: LXRβ Binding Ki) was determined as 1.67 µM. Also, the EC50 in assay [3] is above 20 µM. Also, in assay [4], the “Cell LXRβ efficacy” value was 4014 (16) % and it took 4.01 µM to reach a half-maximal effect (EC50).
Take `CC(C)[C@@H]1CN(c2ccc(F)c(S(C)(=O)=O)c2)CCN1c1ncc(C#N)c(C(F)(F)F)n1` [7-21, (R)-2-(4-(4-fluoro-3-(methylsulfonyl)phenyl)-2-isopropylpiperazin-1-yl)-4-(trifluoromethyl)pyrimidine-5-carbonitrile]: in assay [2] (read-out: LXRβ Binding Ki), the Ki is 0.009 µM. For the same molecule, in assay [3], the “Cell LXRα efficacy” value is recorded as 549 (86) %. The EC50 in assay [3] (agonist mode) worked out at 0.549 µM; in assay [4] it was 0.152 µM. In addition, in assay [4] (agonist mode), the “Cell LXRβ efficacy” value is reported as 152 (65) %.
`C[C@@H](c1ccc(C(F)(F)F)cc1)N1CCN(c2cccc(S(C)(=O)=O)c2)C[C@@H]1c1ccccc1` [46-16, (S)-4-(3-(methylsulfonyl)phenyl)-2-phenyl-1-((S)-1-(4-(trifluoromethyl)phenyl)ethyl)piperazine] came in with a Ki in assay [2] of 0.503 µM. Also, the 50% effective concentration (EC50) in assay [3] and in assay [4] was above 20 µM throughout.
Regarding `CC(F)(F)[C@H]1CC[C@@H](CN2CCN(c3cccc(S(C)(=O)=O)c3)C[C@@H]2c2ccccc2)CC1` (single isomer, unassigned) [48-28], in assay [2] (read-out: LXRβ Binding Ki), the inhibitory constant (Ki) worked out at 1.34 µM. The results for the concentration for a half-maximal effect (EC50) in assay [3] and in assay [4] (setting [7]) were above 20 µM and 6.48 µM, respectively. Further, the “Cell LXRβ efficacy” value in assay [4] (agonist mode) is reported as 12%.
With `CC(C)[C@@H]1CN(c2ccc(F)c(S(C)(=O)=O)c2)CCN1c1ncc(C(=O)N2CC(O)C2)c(C(F)(F)F)n1` [17-5, (R)-(2-(4-(4-fluoro-3-(methylsulfonyl)phenyl)-2-isopropylpiperazin-1-yl)-4-(trifluoromethyl)pyrimidin-5-yl)(3-hydroxyazetidin-1-yl)methanone], the inhibition constant (Ki) in assay [2] (read-out: LXRβ Binding Ki) is 0.396 µM. Besides, the EC50 in assay [3] (agonist mode) and in assay [4] was above 20 µM each time.
In the case of `COC(=O)c1cc(CN2CCN(c3cccc(S(C)(=O)=O)c3)CC2c2ccccc2)ccc1C(F)(F)F` (stereo not drawn) [46-36, methyl 5-((4-(3-(methylsulfonyl)phenyl)-2-phenylpiperazin-1-yl)methyl)-2-(trifluoromethyl)benzoate], the Ki in assay [2] (read-out: LXRβ Binding Ki) came out at 0.244 µM. The “Cell LXRα efficacy” value in assay [3] is reported as 11251 (20) %. Besides, the EC50 in assay [3] (agonist mode) is 11.3 µM; in assay [4], 4.76 µM. In addition, in assay [4] (agonist mode), the “Cell LXRβ efficacy” value is recorded as 4759 (14) %.
Turning to `CS(=O)(=O)c1cccc(N2CCN(C[C@H]3CC[C@@]4(CC3)CC4(F)F)[C@H](c3ccccc3)C2)c1` (single isomer, unassigned) [48-70], in assay [2] (setting [5]), the Ki worked out at 0.75 µM. Moreover, the “Cell LXRα efficacy” value in assay [3] is 9091 (26) %. The EC50 turned out to be 9.09 µM in assay [3] and 3.73 µM in assay [4] (setting [8]). Also, the “Cell LXRβ efficacy” value in assay [4] (setting [6]) is listed as 58%.
For `CS(=O)(=O)c1cccc(N2CCN(C[C@H]3CC[C@]4(CC3)CC4(F)F)[C@H](c3ccccc3)C2)c1` [48-72, (R)-1-(((3R,6r)-1,1-difluorospiro[2.5]octan-6-yl)methyl)-4-(3-(methylsulfonyl)phenyl)-2-phenylpiperazine], in assay [2] (setting [5]), the Ki stood at 0.825 µM. The “Cell LXRα efficacy” value in assay [3] is 7222 (11) %. In addition, the EC50 in assay [3] is 7.22 µM; in assay [4] (setting [8]) it was 2.88 µM. For the same molecule, the “Cell LXRβ efficacy” value in assay [4] (setting [6]) came to 31%.
As for `CS(=O)(=O)c1cccc(N2CCN(C[C@H]3CC[C@H](C(F)(F)F)CC3)[C@@H](c3ccccc3Cl)C2)c1` (single isomer, unassigned) [48-46], in assay [2] (setting [5]), the Ki was 0.027 µM. For the same molecule, in assay [3], the “Cell LXRα efficacy” value is reported as 1908 (35) % and the concentration for a half-maximal effect (EC50) was 1.91 µM. The “Cell LXRβ efficacy” value in assay [4] (setting [6]) came to 35%. In addition, in assay [4] (setting [8]), the EC50 was 0.91 µM.
As to `CNS(=O)(=O)c1cc(N2CCN(c3ncc(C(C)=O)c(C(F)(F)F)n3)[C@H](C(C)C)C2)ccc1F` [13-2, (R)-5-(4-(5-acetyl-4-(trifluoromethyl)pyrimidin-2-yl)-3-isopropylpiperazin-1-yl)-2-fluoro-N-methylbenzenesulfonamide], the affinity in assay [2], expressed as Ki, was 0.003 µM. In assay [3], the “Cell LXRα efficacy” value is listed as 290 (73) % and the EC50 is 0.29 µM. Besides, a half-maximal response in assay [4] (EC50) required 0.033 µM. In assay [4] (agonist mode), the “Cell LXRβ efficacy” value is on record as 33 (58) %.
For `CC(C)[C@@H]1CN(c2ccc(F)c(S(C)(=O)=O)c2)CCN1c1ncc(C(=O)N2CC(NC(=O)OC(C)(C)C)C2)c(C(F)(F)F)n1` [17-21, tert-butyl (R)-(1-(2-(4-(4-fluoro-3-(methylsulfonyl)phenyl)-2-isopropylpiperazin-1-yl)-4-(trifluoromethyl)pyrimidine-5-carbonyl)azetidin-3-yl)carbamate], in assay [2] (read-out: LXRβ Binding Ki), the Ki was determined as 0.111 µM. Besides, the EC50 in assay [3] (agonist mode) and in assay [4] was above 20 µM in each case.
